Measured values as given in patent EP1743889A1, “Sustituted pyrazoline compounds, having predetermined stereochemistry, for reducing triglycerides in blood” (Laboratorios del Dr. Esteve S.A., priority 2005, dated 2007).

Tested on: triglycerides in blood plasma
Test: In-vivo testing for regulation of triglycerides in blood plasma
Set-up: species or system male mice B6 Lep ob/ob
Conditions: obese mice fed with high fat diet; 30 mg/kg/day, p.o., 14 days treatment
Description: This effect is probed in obese mice fed with high fat diet. In the following paragraphs the method of this study is described.
The study is done using six weeks old male mice B6 Lep ob/ob, obtained from Charles River (France). Mice are divided in 3 groups: I (control), II (vehicle), III (example 0).
The animals of the group I receive the standard diet (D-12450B, Research Diets, NJ, USA).
The animals of the groups II and III are fed with a High Fat Diet (D-12492, Research Diets, NJ, USA), in both cases for 7 weeks (References 1 and 2).
The animals of the groups III are fed with a High Fat Diet (D-12492, Research Diets, NJ, USA), in both cases for 7 weeks (References 1 and 2).
At the end of the feeding period of 7 weeks, the treatment period (14 days) is started: Group II mice receive the vehicle (10 ml/kg/day, po, of the aqueous solution of acacia gum, 5% W/V). Group III is administered with 30 mg/kg/day, p.o., of the inventive compound (R)-5-(4-chlorophenyl)-1-(2,4-dichlorophenyl)-4,5-dihydro-pyrazole-3-carboxylic acid according to Example 0. […] The three groups of mice have the same diet than in the previous period.
At the end of the 14 days period of treatment, the blood levels of triglicerides of the animals are determined.
The analysis of the whole blood samples is done using test strips "Lipid panel" and the photometric Analyzer Cardio-Check Test System, from PA Instruments Polymer […]

SMILES: O=C(O)C1=NN(c2ccc(Cl)cc2Cl)[C@@H](c2ccc(Cl)cc2)C1 [Example 0, (R)-5-(4-chlorophenyl)-1-(2,4-dichlorophenyl)-4,5-dihydro-pyrazole-3-carboxylic acid]
- blood levels of triglicerides: inhibitor of high blood levels of triglicerides
